Test results: patent US7208142B2, “Indanylidene compounds” (Symrise GmbH & Co. KG, priority 2000, dated 2007)

Columns and labels:
[1] = UV absorption of the compounds (E1/1 at λmax); assay type: physicochemical
[2] = Photostability: irradiation in a Suntester, concentration decrease of the UV filters; assay type: physicochemical
Description: The values give the concentration decrease of the UV filters in percentage following irradiation (dose in J/cm^2).

[3] = formulation Example 1, 72 J/cm^2, 765 W/m^2
[4] = formulation Example 1, 144 J/cm^2, 765 W/m^2

Row | Compound | λmax [1] | concentration decrease of the UV filter following irradiation [2, 3] [%] | concentration decrease of the UV filter following irradiation [2, 4] [%] | also measured
1 | COc1cc2c(cc1OC)C(C)(C)C/C2=C(/C#N)C(=O)C(C)(C)C [Example 1, 2-(5,6-Dimethoxy-3,3-dimethyl-1-indanylidene)-4,4-dimethyl-3-oxo-pentanonitrile] | 373 nm | – | – | –
2 | COc1c(C)cc2c(c1C)C(C)(C)C/C2=C(/C#N)C(=O)C(C)(C)C [Example 2, 2-(5-Methoxy-3,3,4,6-tetramethyl-1-indanylidene)-4,4-dimethyl-3-oxo-pentanonitrile] | 340 nm | – | – | –
3 | Cc1cc2c(cc1C)C(C)(C)C/C2=C(/C#N)C(=O)C(C)(C)C [Example 3, 2-(3,3,5,6-tetramethyl-1-indanylidene)-4,4-dimethyl-3-oxo-pentanonitrile] | 342 nm | – | – | –
4 | Cc1ccc2c(c1)/C(=C(\C#N)C(=O)C(C)(C)C)CC2(C)C [Example 4, 2-(3,3,6-trimethyl-1-indanylidene)-4,4-dimethyl-3-oxo-pentanonitrile] | 335/316 | – | – | E1/1 (specific extinction at λmax) [1]: 588/550
5 | COc1cc2c(cc1OC(C)=O)/C(=C(\C#N)C(=O)C(C)(C)C)CC2(C)C [Example 8, 2-(6-Acetoxy-3,3-dimethyl-5-methoxy-1-indanylidene)-4,4-dimethyl-3-oxo-pentanonitrile] | 355/302 | – | – | E1/1 (specific extinction at λmax) [1]: 420/280
6 | CCCOC(=O)/C(C#N)=C1\CC(C)(C)c2cc(OC)c(OC)cc21 [Example A1] | – | 10 | 13 | concentration decrease of the UV filter following irradiation ([2]; combination A1 + OMC, formulation Example 12, 72 J/cm^2): 22%; concentration decrease of the UV filter following irradiation ([2]; combination A1 + OMC, formulation Example 12, 144 J/cm^2): 37%
7 | COC(=O)/C(C#N)=C1\CC(C)(C)c2cc(OC)c(OCC(C)C[Si](C)(O[Si](C)(C)C)O[Si](C)(C)C)cc21 (stereo not shown) [Example A2] | – | 1 | 6 | concentration decrease of the UV filter following irradiation ([2]; combination A2 + OMC, formulation Example 12, 72 J/cm^2): 14%; concentration decrease of the UV filter following irradiation ([2]; combination A2 + OMC, formulation Example 12, 144 J/cm^2): 26%
8 | COc1cc2c(cc1OC)C(C)(C)C/C2=C(/C#N)C(=O)C(C)(C)C [Example B1] | – | 2 | 3 | concentration decrease of the UV filter following irradiation ([2]; combination B1 + OMC, formulation Example 12, 72 J/cm^2): 2%; concentration decrease of the UV filter following irradiation ([2]; combination B1 + OMC, formulation Example 12, 144 J/cm^2): 3%
